According to patent US7070983B2, “Mutant Pseudomonas putida strains and methods of use thereof” (priority 2003, dated 2006):

How the values were obtained:
Format in all cases: cell-based, Pseudomonas putida
[1] = tested on: strain no. 3 carrying plasmid pYI433 containing the wild-type rpsL gene; experiment: Complementation experiment, streptomycin resistance; settings: strain no. 3 carrying pYI433; about the same as wild-type levels
Description: To clone the rpsL gene, a 0.9-kb DNA region covering whole rpsL was amplified from the chromosomal DNA of P. putida KH146-2 using KDO DNA polymerase (Toyobo Biochemicals, Osaka). Oligonucleotide primers were designed according to the rpoC-rpsL-rpsG sequence of P. putida KT2440 (www.tigr.org); 5′-[…]-3′ (SEQ ID NO:7—nucleotides [nt]−368 to −341 upstream of rpsL) and 5′-[…]-3′ (SEQ ID NO:8—complementary to nt 107 to 135 downstream of rpsL). The amplified DNA fragments were cloned into plasmid pUC118 (Vieira and Messing, (1987) Methods Enzymol 153: 3–11) to confirm the sequence, then excised from the plasmids as a BamHI-SphI fragment using the restriction sites in the multi-cloning sequence of the vector and inserted between the BglII and SphI sites of the E. coli-Pseudomonas shuttle vector pNIT6010 carrying tet^R, a derivative of pNIT6011 (Nishijyo et al. (2001) Mol Microbiol 40:917–931). The resultant plasmid pYI433, as well as vector control pNIT6010, was introduced into the Str mutant no. 3 (str-1) by conjugation using E. coli HB101/pRK2013 as the helper (Comai et al. (1983) Plasmid 10:21–30). Fifty μg ml^−1 of tetracycline was used for selection of transformants.
[…]

[2] = tested on: the eight Str mutants with increased tolerance to 4HBA; experiment: Resistance level to streptomycin, Str mutants as a group
Description: (§1) Spontaneous streptomycin-resistant (Str), gentamicin-resistant (Gen) or rifampicin-resistant (Rif) mutants were obtained from colonies that grew within 3 days after wild-type cells were spread on LB agar containing various concentrations of antibiotic.
Streptomycin resistance frequently results from a mutation in the rpsL gene for the ribosomal protein S12 (Hosoya et al., ((1998) Antimirob Agents Chemother 42:204–2047); Inaoka et al., ((2001) J Bacteriol 183:4958–4963); Shima et al., ((1996) J Bacterial 178:7276–7284)). Rifampicin resistance results from a mutation in the rpoB gene (β-subunit of RNA polymerase) (Heep et al., ((1999) Antimicrob Agents Chemother 43:1497–1499); Jin and Gross, ((1988) J Mol Biol 202:45–58); Wichelhaus et al., ((1999) Antimicrob Agents Chemother 43:2813–2816); Hu et al., ((2002) J Bacteriol 184: 3984–3991)). We therefore sequenced and compared the rpsL gene and rpoB gene from the mutants to the wild-type strain.

parental strain KH146-2 = experiment: Antibiotic growth suppression on LB agar
Description: as §1
We first isolated a number of spontaneous streptomycin-resistant (Str), gentamicin-resistant (Gen) and rifampicin-resistant (Rif) mutants of P. putida KH146-2. These mutants appeared at a frequency of 10^−5–10^−6 when KH146-2 cells were spread on LB agar containing various amounts of antibiotics. […] Forty mutants resistant to each antibiotic were randomly selected and examined for tolerance to 4-hydroxybenzoic acid (4HBA). 4HBA-tolerant strains, which could grow in the presence of 1% 4HBA, were detected among these antibiotic resistant mutants at a high frequency of 3 to 15% (Table 1). The highest frequency (15%) was detected in the mutants selected with 1000 μg ml^−1 of streptomycin. These 4HBA-tolerant isolates all grew as well as the parent strain on LB agar.

[3] = tested on: P. putida strain no. 9 (str-2); experiment: Resistance level to antibiotic on LB agar; settings: 1 days on LB agar
Description: as §1

[4] = tested on: P. putida strain no. 2 (str-1); experiment: Resistance level to antibiotic on LB agar; settings: 1 days on LB agar
Description: as §1

[5] = tested on: P. putida strain no. 6 (str-1); experiment: Resistance level to antibiotic on LB agar; settings: 1 days on LB agar
Description: as §1

[6] = tested on: P. putida strain no. 3 (str-1); experiment: Resistance level to antibiotic on LB agar; settings: 1 days on LB agar
Description: as §1

[7] = tested on: P. putida strain no. 5 (str-1); experiment: Resistance level to antibiotic on LB agar; settings: 1 days on LB agar
Description: as §1

[8] = tested on: P. putida strain no. 10 (str-1); experiment: Resistance level to antibiotic on LB agar; settings: 1 days on LB agar
Description: as §1

[9] = tested on: P. putida strain no. 8 (str-1); experiment: Resistance level to antibiotic on LB agar; settings: 1 days on LB agar
Description: as §1

[10] = tested on: P. putida strain no. 4 (str-1); experiment: Resistance level to antibiotic on LB agar; settings: 1 days on LB agar
Description: as §1

[H]/N=C(/N)N[C@H]1[C@H](O)[C@@H](O)[C@H](O[C@@H]2O[C@@H](C)[C@](O)(C=O)[C@H]2O[C@@H]2O[C@@H](CO)[C@H](O)[C@@H](O)[C@@H]2NC)[C@@H](N/C(N)=N\[H])[C@@H]1O [streptomycin]
levels of Str (streptomycin resistance) [1]: 100 to 200 µg/mL | level of resistance to streptomycin [2]: > 100 mg/mL | resistance compared to the wild-type strain [2]: > 1000 fold | Concentration completely suppressing growth (parental strain KH146-2): 100 µg/mL | Resistance level to antibiotic [3]: >100,000 (STR) μg ml^−1 | Resistance level to antibiotic [4]: >100,000 (STR) μg ml^−1 | Resistance level to antibiotic [5]: >100,000 (STR) μg ml^−1 | Resistance level to antibiotic [6]: >100,000 (STR) μg ml^−1 | Resistance level to antibiotic [7]: >100,000 (STR) μg ml^−1 | Resistance level to antibiotic [8]: >100,000 (STR) μg ml^−1 | Resistance level to antibiotic [9]: >100,000 (STR) μg ml^−1 | Resistance level to antibiotic [10]: >100,000 (STR) μg ml^−1
